According to ChEMBL document CHEMBL5214888, “The new opportunities in medicinal chemistry of fourth-generation EGFR inhibitors to overcome C797S mutation” (Eur J Med Chem, 2021):

What was measured:
PC-9 [1] = assay: Antiproliferative activity against human PC-9 cells assessed as inhibition of cell proliferation; assay type: functional, cell-based
PC-9 [2] = assay: Antiproliferative activity against human PC-9 cells harboring EGFR L858R/T790M/C797S mutant assessed as inhibition of cell proliferation; assay type: functional, cell-based
A549 = assay: Antiproliferative activity against human A549 assessed as inhibition of cell proliferation; assay type: functional, cell-based
PC-9 [3] = assay: Antiproliferative activity against human PC-9 cells harboring EGFR del19/T790M/C797S mutant assessed as inhibition of cell proliferation; assay type: functional, cell-based
[4] = target: T1, Epidermal growth factor receptor (Homo sapiens, UniProt P00533, L858R/T790M); assay: Inhibition of EGFR L858R/T790M mutant (unknown origin)
[5] = target: T2, Epidermal growth factor receptor (Homo sapiens, UniProt P00533, C797S/L858R/T790M); assay: Inhibition of EGFR L858R/T790M/C797S mutant (unknown origin)
[6] = target: T3, Epidermal growth factor receptor (Homo sapiens, UniProt P00533); assay: Inhibition of wild type EGFR (unknown origin)
[7] = target: T4, Epidermal growth factor receptor (Homo sapiens, UniProt P00533, C797S/EX19DEL/T790M); assay: Inhibition of EGFR del19/T790M/C797S triple mutant (unknown origin) phosphorylation expressed in mouse BaF3 cells by fluorescence based microplate reader analysis; assay type: cell-based
BaF3 [8] = assay: Antiproliferative activity against mouse BaF3 cells harboring EGFR del19/T790M/C797S triple mutant assessed as inhibition of cell proliferation by celltiter-Glo assay; assay type: functional, cell-based
[9] = target: T4, Epidermal growth factor receptor; assay: Inhibition of human EGFR del19/T790M/C797S mutant assessed as enzyme remaining activity using poly-Glu-Tyr peptide substrate incubated for 2 hrs in presence of [gamma-33P]ATP by radiometric kinase assay
BaF3 [10] = assay: Cytotoxicity against mouse BaF3 cells expressing human EGFR C797S/del19 mutant assessed as inhibition of in cell viability measured after 72 hrs by CellTiter-Glo assay; assay type: functional, cell-based; conditions: BaF3, 72 h
BaF3 [11] = assay: Cytotoxicity against mouse BaF3 cells expressing human EGFR C797S/T790M/del19 mutant assessed as inhibition of in cell viability measured after 72 hrs by CellTiter-Glo assay; assay type: functional, cell-based; conditions: BaF3, 72 h
[12] = Half life in C57Bl/6 mouse at 3 mg/kg, iv and measured upto 8 hrs by LC-MS/MS analysis; assay type: ADME, organism-based; conditions: in vivo
[13] = Oral bioavailability in C57Bl/6 mouse plasma at 20 mg/kg and measured upto 8 hrs by LC-MS/MS analysis; assay type: ADME, organism-based
[14] = Cmax in C57Bl/6 mouse plasma at 20 mg/kg, po and measured upto 8 hrs by LC-MS/MS analysis; assay type: ADME, organism-based; design: dose 20 mg/kg, time < 8 hrs, route po
[15] = AUClast in C57Bl/6 mouse at 3 mg/kg, iv and measured upto 8 hrs by LC-MS/MS analysis; assay type: ADME, organism-based; design: dose 3 mg/kg, time < 8 hrs, route iv; conditions: in vivo
BaF3 [16] = assay: cells; conditions: Mus musculus
BaF3 [17] = assay: cells; conditions: Mus musculus; remark: listed apart in the source
[18] = target: T4, Epidermal growth factor receptor; assay: Inhibition of human EGFR del19/T790M/C797S mutant using ATP-labelled peptide substrate by HTRF assay
[19] = target: T3, Epidermal growth factor receptor; assay: Inhibition of human wild type GST-tagged EGFR expressed in Sf9 cells assessed as substrate phosphorylation using TK-peptide as substrate incubated for 25 mins by HTRF assay
[20] = target: T1, Epidermal growth factor receptor; assay: Inhibition of human GST-tagged EGFR L858R/T790M mutant expressed in Sf9 cells assessed as substrate phosphorylation using TK-peptide as substrate incubated for 20 mins by HTRF assay
[21] = target: T2, Epidermal growth factor receptor; assay: Inhibition of human GST-tagged EGFR L858R/T790M/C797S mutant expressed in Sf9 cells assessed as substrate phosphorylation using TK-peptide as substrate incubated for 10 mins by HTRF assay
BaF3 [22] = assay: cells; conditions: Mus musculus, BaF3, 72 h

T1 sequence (P00533 25-1210 T790M/L858R limits assumed): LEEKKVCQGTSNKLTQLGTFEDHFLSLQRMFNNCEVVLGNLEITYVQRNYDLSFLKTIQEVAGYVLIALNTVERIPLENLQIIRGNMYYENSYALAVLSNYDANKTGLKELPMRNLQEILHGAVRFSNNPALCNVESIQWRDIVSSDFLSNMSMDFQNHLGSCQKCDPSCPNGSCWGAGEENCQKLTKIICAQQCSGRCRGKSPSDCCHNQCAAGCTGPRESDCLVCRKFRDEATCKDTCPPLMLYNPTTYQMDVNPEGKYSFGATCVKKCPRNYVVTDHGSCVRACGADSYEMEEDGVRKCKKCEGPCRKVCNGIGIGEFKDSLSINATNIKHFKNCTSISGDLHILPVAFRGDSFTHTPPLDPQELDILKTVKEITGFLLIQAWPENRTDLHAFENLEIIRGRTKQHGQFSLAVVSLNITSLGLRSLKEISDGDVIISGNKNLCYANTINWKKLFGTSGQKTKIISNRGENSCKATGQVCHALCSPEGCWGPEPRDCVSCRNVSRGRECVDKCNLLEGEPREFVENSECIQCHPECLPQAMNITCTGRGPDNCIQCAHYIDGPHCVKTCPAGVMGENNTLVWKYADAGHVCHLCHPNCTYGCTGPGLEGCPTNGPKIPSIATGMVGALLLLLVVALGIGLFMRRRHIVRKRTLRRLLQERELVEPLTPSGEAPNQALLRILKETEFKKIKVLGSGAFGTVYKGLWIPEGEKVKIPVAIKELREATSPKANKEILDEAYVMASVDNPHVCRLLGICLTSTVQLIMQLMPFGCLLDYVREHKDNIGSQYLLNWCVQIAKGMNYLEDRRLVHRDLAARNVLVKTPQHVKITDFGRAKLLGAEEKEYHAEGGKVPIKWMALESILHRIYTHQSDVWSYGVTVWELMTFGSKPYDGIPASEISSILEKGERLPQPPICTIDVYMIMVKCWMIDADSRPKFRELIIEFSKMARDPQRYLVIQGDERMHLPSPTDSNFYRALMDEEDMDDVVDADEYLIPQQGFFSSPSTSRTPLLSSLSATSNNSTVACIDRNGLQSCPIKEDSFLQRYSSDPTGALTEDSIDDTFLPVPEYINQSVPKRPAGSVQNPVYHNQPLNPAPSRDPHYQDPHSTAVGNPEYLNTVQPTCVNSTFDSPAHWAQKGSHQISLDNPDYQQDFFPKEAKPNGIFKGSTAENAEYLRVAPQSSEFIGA
T4 sequence (P00533 whole entry, looked up, stated change not applied): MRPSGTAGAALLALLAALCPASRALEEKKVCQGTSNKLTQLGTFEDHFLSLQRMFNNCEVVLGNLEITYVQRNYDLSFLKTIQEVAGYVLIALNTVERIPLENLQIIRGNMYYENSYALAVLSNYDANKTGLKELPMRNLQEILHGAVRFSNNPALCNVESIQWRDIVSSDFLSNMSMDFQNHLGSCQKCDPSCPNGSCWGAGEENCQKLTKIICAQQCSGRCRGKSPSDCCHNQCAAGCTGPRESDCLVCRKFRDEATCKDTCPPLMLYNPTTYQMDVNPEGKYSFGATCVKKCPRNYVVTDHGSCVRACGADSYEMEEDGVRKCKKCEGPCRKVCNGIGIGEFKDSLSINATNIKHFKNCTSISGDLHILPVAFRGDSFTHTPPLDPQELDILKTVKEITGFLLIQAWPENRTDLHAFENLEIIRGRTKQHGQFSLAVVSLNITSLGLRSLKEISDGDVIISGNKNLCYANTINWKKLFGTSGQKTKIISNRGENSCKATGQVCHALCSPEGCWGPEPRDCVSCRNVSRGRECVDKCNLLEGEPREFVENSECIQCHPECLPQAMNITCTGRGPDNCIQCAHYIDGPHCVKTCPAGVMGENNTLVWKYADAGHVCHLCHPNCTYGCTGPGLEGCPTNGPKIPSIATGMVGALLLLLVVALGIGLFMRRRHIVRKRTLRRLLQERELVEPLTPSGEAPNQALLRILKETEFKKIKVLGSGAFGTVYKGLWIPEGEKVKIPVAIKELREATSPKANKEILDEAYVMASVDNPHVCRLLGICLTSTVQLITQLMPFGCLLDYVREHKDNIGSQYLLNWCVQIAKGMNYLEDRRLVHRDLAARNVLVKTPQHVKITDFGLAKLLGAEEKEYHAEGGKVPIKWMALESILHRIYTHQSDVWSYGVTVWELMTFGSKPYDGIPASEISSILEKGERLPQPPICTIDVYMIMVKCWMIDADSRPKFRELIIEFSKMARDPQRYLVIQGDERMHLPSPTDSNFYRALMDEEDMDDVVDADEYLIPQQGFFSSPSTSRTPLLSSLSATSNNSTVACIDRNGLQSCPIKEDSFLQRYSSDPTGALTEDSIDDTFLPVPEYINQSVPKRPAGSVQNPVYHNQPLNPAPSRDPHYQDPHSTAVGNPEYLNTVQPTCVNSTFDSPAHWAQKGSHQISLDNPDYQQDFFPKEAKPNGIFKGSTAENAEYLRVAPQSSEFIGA
T3 sequence (P00533 whole entry): as the sequence (P00533 whole entry, looked up, stated change not applied) above
T2 sequence (P00533 25-1210 T790M/C797S/L858R limits assumed): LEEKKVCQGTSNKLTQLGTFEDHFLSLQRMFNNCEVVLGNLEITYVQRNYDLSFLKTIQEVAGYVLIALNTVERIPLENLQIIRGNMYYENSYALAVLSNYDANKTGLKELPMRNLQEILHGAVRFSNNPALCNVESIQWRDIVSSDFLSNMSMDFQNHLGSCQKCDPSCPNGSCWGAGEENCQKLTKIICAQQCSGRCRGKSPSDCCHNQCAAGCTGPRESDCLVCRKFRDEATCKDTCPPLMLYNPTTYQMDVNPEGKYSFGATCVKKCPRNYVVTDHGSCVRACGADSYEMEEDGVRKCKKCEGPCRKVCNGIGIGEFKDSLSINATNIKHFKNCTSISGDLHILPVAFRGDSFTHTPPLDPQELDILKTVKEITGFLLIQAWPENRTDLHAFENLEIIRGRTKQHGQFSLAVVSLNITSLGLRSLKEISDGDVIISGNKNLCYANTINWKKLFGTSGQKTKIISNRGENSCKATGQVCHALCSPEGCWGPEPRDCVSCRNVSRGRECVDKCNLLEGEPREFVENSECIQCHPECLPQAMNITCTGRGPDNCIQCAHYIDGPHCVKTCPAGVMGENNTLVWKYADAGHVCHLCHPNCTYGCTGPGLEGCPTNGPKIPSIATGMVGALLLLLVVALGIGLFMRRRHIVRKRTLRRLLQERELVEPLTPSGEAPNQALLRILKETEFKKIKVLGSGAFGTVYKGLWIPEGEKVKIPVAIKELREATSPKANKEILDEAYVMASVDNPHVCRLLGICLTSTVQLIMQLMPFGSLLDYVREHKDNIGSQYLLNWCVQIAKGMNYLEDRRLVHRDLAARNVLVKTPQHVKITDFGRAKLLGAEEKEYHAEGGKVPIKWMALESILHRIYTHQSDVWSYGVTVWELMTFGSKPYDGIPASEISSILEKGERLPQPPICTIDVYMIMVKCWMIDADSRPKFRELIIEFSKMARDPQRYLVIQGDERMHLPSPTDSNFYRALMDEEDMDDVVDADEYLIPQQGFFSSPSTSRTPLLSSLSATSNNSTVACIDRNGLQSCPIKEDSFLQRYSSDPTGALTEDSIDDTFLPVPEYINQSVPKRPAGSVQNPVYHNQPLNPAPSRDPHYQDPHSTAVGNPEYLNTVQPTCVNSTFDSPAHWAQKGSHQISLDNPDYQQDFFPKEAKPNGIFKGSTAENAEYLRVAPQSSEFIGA

`COc1ccc(-c2c3c4cc(OCCCN(C)C)c(OCCCN(C)C)cc4oc(=O)c3n3ccc4cc(O)c(OC)cc4c23)cc1O` showed an IC50 (PC-9 [1]) of 658 nM, an IC50 (PC-9 [2]) of 596 nM and an IC50 (A549) of 2860 nM. For the same compound, the IC50 (PC-9 [3]) was 740 nM.

`OCCCCc1ccc(-c2nc(-c3ccc(F)cc3)c(-c3ccnc4c3CC(c3ccccc3)N4)[nH]2)cc1` (centres undefined) gave an IC50 [4] of 8.39 nM, an IC50 [5] of 8.83 nM and an IC50 [6] of under 0.3 nM.

`C=C(C)c1cnc(Nc2ccc(N3CCC4(CCN(C)CC4)CC3)c(C)c2)nc1Nc1ccccc1P(C)(C)=O` gave an IC50 [7] of under 100 nM and an IC50 (BaF3 [8]) of under 100 nM.

Compound `COC(=O)c1ccc(O)c(-c2nc(NCc3cccnc3)c3ccccc3n2)c1` has an IC50 [9] of 46 nM.

In the case of `Cc1cc(Nc2ncc(Cl)c(Nc3ccccc3P(C)(C)=O)n2)ccc1N1CCC2(CC1)CN(C)C2`, the IC50 [7] is reported as under 100 nM and the IC50 (BaF3 [8]) is reported as under 100 nM.

For `COc1cc(N2CCC(N)CC2)ccc1Nc1ncc(Cl)c(-c2c[nH]c3ccccc23)n1`, the IC50 (BaF3 [10]) was 74.4 nM and the IC50 (BaF3 [11]) was 132 nM.

Compound `COc1cc(N2CCC(N3CCN(C)CC3)CC2)ccc1Nc1ncc(Cl)c(Nc2ccccc2P(C)(C)=O)n1` [BRIGATINIB] has an IC50 (BaF3 [10]) of 39.9 nM.

Work on `COc1cc(N2CCC(N(C)C)CC2)ccc1Nc1ncc(Cl)c(Nc2ccccc2P(C)(C)=O)n1` yielded an IC50 (BaF3 [10]) of 28.4 nM and an IC50 (BaF3 [11]) of 59.1 nM.

`N#Cc1ccc(O)c(-c2nc(NCc3cnccn3)c3ccccc3n2)c1` gave an IC50 [9] of 17 nM.

`Oc1ccc(-c2nc(-c3ccc(F)cc3)c(-c3ccnc4c3CC(c3ccccc3)N4)[nH]2)cc1` (centres undefined) showed an IC50 [4] of 916 nM and an IC50 [6] of 49.2 nM.

`OCCc1ccc(-c2nc(-c3ccc(F)cc3)c(-c3ccnc4c3CC(c3ccccc3)N4)[nH]2)cc1` (centres undefined) gave an IC50 [4] of 12.5 nM, an IC50 [5] of 7.64 nM and an IC50 [6] of under 0.3 nM.

With `O=C(Nc1nccs1)C(c1cc(F)ccc1O)N1Cc2ccc(-c3ccc(N4CCNCC4)cc3)cc2C1=O` (centres undefined) the half-life [12] was 3 h, the bioavailability [13] was 3% and the Cmax [14] was 1100 nM. For the same compound, the AUC(0-t) at 8 h [15] was 12100 ng·h/mL.

For `CC(=O)N[C@H]1CC[C@@H](N2C(=O)N(c3ccccc3Cl)Cc3cnc(Nc4ccc(N5CCN(C)CC5)c(C)c4)nc32)CC1`, the IC50 (BaF3 [16]) was 290 nM and the IC50 (BaF3 [17]) was 316 nM.

`COc1cc(N2CCC(N3CCN(C)CC3)CC2)ccc1Nc1ncc(Cl)c(Nc2ccccc2NS(C)(=O)=O)n1` gave an IC50 [18] of 0.2 nM.

`CN1CCC2(CC1)CCN(c1ccc(Nc3ncc(Cl)c(Nc4ccccc4P(C)(C)=O)n3)cc1Br)CC2` gave an IC50 [7] of under 100 nM and an IC50 (BaF3 [8]) of under 100 nM.

For `CCCCOc1ncnc2[nH]c(-c3ccc(N4CCN(C)CC4)cc3)c(-c3cccc(NC(=O)CC)c3)c12`, the IC50 [19] was under 0.1 nM, the IC50 [20] was under 0.1 nM and the IC50 [21] was 9.4 nM.

`CCC(=O)Nc1cccc(-c2c(-c3ccccc3)[nH]c3ncnc(OC)c23)c1` gave an IC50 [19] of 1200 nM and an IC50 [20] of 176 nM.

Compound `COc1cc(N2CCC(N3CCN(C)CC3)CC2)ccc1Nc1ncnc(Nc2ccccc2S(=O)(=O)C(C)C)n1` [ASP-3026] has an IC50 (BaF3 [10]) of 324 nM and an IC50 (BaF3 [11]) of 1510 nM.

Compound `N#Cc1ccc(O)c(-c2nc(NCc3cccnc3)c3ccccc3n2)c1` has an IC50 [9] of 17.9 nM.

In the case of `COc1cc(N2CCC(N3CCN(CCO)CC3)CC2)ccc1Nc1ncc(Cl)c(Nc2ccccc2NS(C)(=O)=O)n1`, the IC50 [18] is reported as 0.8 nM.

`Oc1ccccc1-c1nc(NCc2cccnc2)c2ccccc2n1` showed an IC50 [9] of 149 nM.

`CCC(=O)Nc1cccc(-c2c(-c3ccc(N4CCN(C)CC4)cc3)[nH]c3ncn(C4CCCCC4)c(=O)c23)c1` gave an IC50 [19] of 0.4 nM, an IC50 [20] of 0.4 nM and an IC50 [21] of 22 nM.

For `CCC(=O)Nc1cccc(-c2c(-c3ccc(N4CCN(C)CC4)cc3)[nH]c3ncnc(OCC(C)C)c23)c1`, the IC50 [19] was 0.2 nM, the IC50 [20] was under 0.1 nM and the IC50 [21] was 8.5 nM.

For `O=C(Nc1nccs1)C(c1ccccc1)N1Cc2ccc(-c3ccc4[nH]ccc4c3)cc2C1=O` (centres undefined), the IC50 (BaF3 [22]) was 900 nM.

With `Cc1cc(Nc2ncc(Cl)c(Nc3ccccc3S(=O)(=O)C(C)C)n2)c(OC(C)C)cc1C1CCNCC1` [CERITINIB] the IC50 (BaF3 [11]) was 780 nM.

`CSc1nc(-c2ccc(F)cc2)c(-c2ccnc(Nc3ccccc3)c2)[nH]1` gave an IC50 [5] of over 149 nM.

For `CCC(=O)Nc1cccc(-c2c(-c3ccc(N4CCN(C)CC4)cc3)[nH]c3ncnc(OC(C)C)c23)c1`, the IC50 [19] was 0.1 nM, the IC50 [20] was 0.1 nM and the IC50 [21] was 8.6 nM.
